Measured values: patent US6911209B1, “Method of treating sick sinus syndrome with levosimendan” (Orion Corporation, priority 1999, dated 2005)

Tested on: heart rhythm of a patient
Assay: Clinical data: oral levosimendan in a patient with wandering atrial pacemaker, first degree AV block, junctional rhythm
Format: in vivo, human
Procedure: The underlying heart rhythm of a patient on intravenous milrinone was wandering atrial pacemaker with a first degree AV block alternating with a junctional rhythm and sinus rhythm. The overall heart rate was around 70 bpm. Because of failure to wean the milrinone the patient was entered into oral levosimendan first at 1 mg followed by 2 mg and subsequently by 4 mg qd. […] Their levosimendan dose was reduced to 2 mg and maintained at that dose during the taper of intravenous milrinone. […] Milrinone was tapered off and the patient could be transferred out of the intensive care unit. The patient's dose of levosimendan was continued at 1 mg three times a day.

Structure (SMILES): CC1CC(=O)NN=C1c1ccc(NN=C(C#N)C#N)cc1 (single isomer, unassigned; (-)) [levosimendan, (−)-[[4-(1,4,5,6-tetrahydro-4-methyl-6-oxo-3-pyridazinyl)phenyl]hydrazono]propanedinitrile]
- cardiac rhythm (levosimendan 2 mg during taper of intravenous milrinone): regularize with a vast majority of the beats being sinus node in origin
- overall heart rate (levosimendan dose reduced to 2 mg, maintained during taper of intravenous milrinone): 80-85 bpm
- heart rate (oral levosimendan 1 mg, then 2 mg, then 4 mg qd, patient on intravenous milrinone, baseline around 70 bpm): over 90 bpm
